Source: the NIST ThermoML archive (doi:10.1021/je900864n)
Numbers after ± are expanded uncertainties.

Legend:
[1] = 101.33 kPa, Liquid
[2] = refractive index (Na D-line) (dimensionless); details: 101.33 kPa, Liquid, Standard Abbe refractometry
[3] = refractive index (other wavelength) (dimensionless); wn = mass fraction of the nth substance listed; details: 101 kPa, Liquid, Wavelength=632.8 nm, Standard Abbe refractometry
[4] = refractive index (other wavelength) (dimensionless); details: 101 kPa, Liquid, Standard Abbe refractometry

OCCCCO [1,4-butanediol]
Details | mass density [kg/m3] | refractive index
[1], 293.15 K | 1016.37 ± 0.5 | –
[1], 298.15 K | 1013.04 ± 0.49 | –
[1], 303.15 K | 1009.96 ± 0.48 | –
[1], 308.15 K | 1006.75 ± 0.47 | –
[1], 313.15 K | 1003.55 ± 0.46 | –
[1], 318.15 K | 1000.72 ± 0.45 | –
[2], 294.23 K | – | 1.4447 ± 0.0005
[2], 297.67 K | – | 1.4437 ± 0.0005
[2], 300.86 K | – | 1.4428 ± 0.0005
[2], 303.23 K | – | 1.4422 ± 0.0005
[2], 306.21 K | – | 1.4414 ± 0.0005
[2], 309.13 K | – | 1.4406 ± 0.0005
[2], 313.69 K | – | 1.4393 ± 0.0005

OCCCCO [1,4-butanediol] + CCCCn1cc[n+](C)c1.F[B-](F)(F)F
[3]
Details | refractive index
296.24 K, w2 = 0.894 | 1.4221 ± 0.0004
298.19 K, w2 = 0.894 | 1.4216 ± 0.0004
300.13 K, w2 = 0.894 | 1.4211 ± 0.0004
301.24 K, w2 = 0.786 | 1.4216 ± 0.0004
302.15 K, w2 = 0.894 | 1.4206 ± 0.0004
303.16 K, w2 = 0.786 | 1.4211 ± 0.0004
303.25 K, w2 = 0.686 | 1.4223 ± 0.0004
304.14 K, w2 = 0.894 | 1.42 ± 0.0004
304.22 K, w2 = 0.579 | 1.4237 ± 0.0004
304.24 K, w2 = 0.786 | 1.4208 ± 0.0004
305.26 K, w2 = 0.686 | 1.4218 ± 0.0004
306.24 K, w2 = 0.579 | 1.4231 ± 0.0004
306.25 K, w2 = 0.094 | 1.4367 ± 0.0004
306.69 K, w2 = 0.894 | 1.4194 ± 0.0004
306.7 K, w2 = 0.484 | 1.4247 ± 0.0004
307.2 K, w2 = 0.094 | 1.4364 ± 0.0004
307.21 K, w2 = 0.786 | 1.42 ± 0.0004
307.29 K, w2 = 0.686 | 1.4212 ± 0.0004
308.22 K, w2 = 0.484 | 1.4243 ± 0.0004
308.24 K, w2 = 0.094 | 1.4361 ± 0.0004
308.27 K, w2 = 0.579 | 1.4225 ± 0.0004
309.2 K, w2 = 0.686 | 1.4207 ± 0.0004
309.23 K, w2 = 0.094 | 1.4358 ± 0.0004
309.24 K, w2 = 0.786 | 1.4195 ± 0.0004
309.26 K, w2 = 0.381 | 1.4264 ± 0.0004
309.55 K, w2 = 0.19 | 1.4322 ± 0.0004
309.73 K, w2 = 0.484 | 1.4238 ± 0.0004
309.88 K, w2 = 0.286 | 1.4289 ± 0.0004
310.17 K, w2 = 0.094 | 1.4355 ± 0.0004
310.22 K, w2 = 0.579 | 1.422 ± 0.0004
310.64 K, w2 = 0.381 | 1.426 ± 0.0004
311.22 K, w2 = 0.286 | 1.4285 ± 0.0004
311.22 K, w2 = 0.686 | 1.4202 ± 0.0004
311.25 K, w2 = 0.19 | 1.4317 ± 0.0004
311.33 K, w2 = 0.484 | 1.4234 ± 0.0004
311.85 K, w2 = 0.786 | 1.4188 ± 0.0004
312.19 K, w2 = 0.579 | 1.4214 ± 0.0004
312.27 K, w2 = 0.094 | 1.4349 ± 0.0004
312.31 K, w2 = 0.381 | 1.4255 ± 0.0004
312.78 K, w2 = 0.19 | 1.4312 ± 0.0004
312.88 K, w2 = 0.484 | 1.4229 ± 0.0004
313 K, w2 = 0.286 | 1.4279 ± 0.0004
313.28 K, w2 = 0.686 | 1.4196 ± 0.0004
313.79 K, w2 = 0.381 | 1.4251 ± 0.0004
314.29 K, w2 = 0.19 | 1.4308 ± 0.0004
314.29 K, w2 = 0.579 | 1.4208 ± 0.0004
314.31 K, w2 = 0.484 | 1.4225 ± 0.0004
314.32 K, w2 = 0.094 | 1.4343 ± 0.0004
314.39 K, w2 = 0.286 | 1.4275 ± 0.0004
315.65 K, w2 = 0.381 | 1.4246 ± 0.0004
315.79 K, w2 = 0.286 | 1.4271 ± 0.0004
316.13 K, w2 = 0.19 | 1.4302 ± 0.0004
317.3 K, w2 = 0.19 | 1.4299 ± 0.0004
317.35 K, w2 = 0.286 | 1.4266 ± 0.0004
317.38 K, w2 = 0.381 | 1.4241 ± 0.0004

CCCCn1cc[n+](C)c1.F[B-](F)(F)F [1-butyl-3-methylimidazolium tetrafluoroborate]
[4], Wavelength=632.8 nm
Details | refractive index
286.91 K | 1.4228 ± 0.0004
288.89 K | 1.4223 ± 0.0004
290.92 K | 1.4218 ± 0.0005
293.04 K | 1.4212 ± 0.0005
295.03 K | 1.4207 ± 0.0004
297.04 K | 1.4202 ± 0.0004
299.02 K | 1.4197 ± 0.0004
304.12 K | 1.4184 ± 0.0004
309.02 K | 1.4171 ± 0.0005
314.35 K | 1.4157 ± 0.0004
318.92 K | 1.4146 ± 0.0004

[1]
Details | mass density [kg/m3]
293.15 K | 1210.05 ± 1.2
298.15 K | 1206.32 ± 1.2
303.15 K | 1202.59 ± 1.2
308.15 K | 1198.97 ± 1.2
313.15 K | 1195.24 ± 1.1

OCCCO [propan-1,3-diol]
[4], Wavelength=63.28 nm
Details | refractive index
287.46 K | 1.4396 ± 0.0004
288.88 K | 1.4392 ± 0.0004
290.94 K | 1.4387 ± 0.0004
293.1 K | 1.4381 ± 0.0004
295.16 K | 1.4375 ± 0.0004
297.02 K | 1.437 ± 0.0004
299.09 K | 1.4365 ± 0.0004
301.21 K | 1.4359 ± 0.0004

[1]
Details | mass density [kg/m3]
293.15 K | 1053.48 ± 0.26
298.15 K | 1050.28 ± 0.26
303.15 K | 1047.26 ± 0.25
308.15 K | 1044.11 ± 0.25
313.15 K | 1040.94 ± 0.24

OCCCO [propan-1,3-diol] + CCCCn1cc[n+](C)c1.F[B-](F)(F)F
[3]
Details | refractive index
286.8 K, w2 = 0.698 | 1.424 ± 0.0005
286.81 K, w2 = 0.796 | 1.4233 ± 0.0005
287.24 K, w2 = 0.901 | 1.4228 ± 0.0005
288.87 K, w2 = 0.796 | 1.4228 ± 0.0005
288.88 K, w2 = 0.901 | 1.4224 ± 0.0005
289.37 K, w2 = 0.698 | 1.4234 ± 0.0005
290.78 K, w2 = 0.602 | 1.4239 ± 0.0005
290.86 K, w2 = 0.796 | 1.4223 ± 0.0005
291 K, w2 = 0.901 | 1.4219 ± 0.0005
291.2 K, w2 = 0.698 | 1.4229 ± 0.0005
292.89 K, w2 = 0.796 | 1.4218 ± 0.0005
292.95 K, w2 = 0.901 | 1.4214 ± 0.0005
293.29 K, w2 = 0.602 | 1.4232 ± 0.0005
293.3 K, w2 = 0.698 | 1.4223 ± 0.0005
294.94 K, w2 = 0.698 | 1.4219 ± 0.0005
294.99 K, w2 = 0.901 | 1.4209 ± 0.0005
295.08 K, w2 = 0.602 | 1.4227 ± 0.0005
295.86 K, w2 = 0.796 | 1.4211 ± 0.0005
296.02 K, w2 = 0.513 | 1.4235 ± 0.0007
296.98 K, w2 = 0.602 | 1.4222 ± 0.0005
297 K, w2 = 0.901 | 1.4204 ± 0.0005
297.16 K, w2 = 0.0947 | 1.4328 ± 0.0004
297.94 K, w2 = 0.698 | 1.4211 ± 0.0005
297.96 K, w2 = 0.796 | 1.4206 ± 0.0005
298.14 K, w2 = 0.513 | 1.4229 ± 0.0005
298.49 K, w2 = 0.0947 | 1.4325 ± 0.0004
298.98 K, w2 = 0.602 | 1.4217 ± 0.0005
299.51 K, w2 = 0.384 | 1.4245 ± 0.0005
299.54 K, w2 = 0.299 | 1.4263 ± 0.0005
299.6 K, w2 = 0.194 | 1.4289 ± 0.0006
300 K, w2 = 0.0947 | 1.4321 ± 0.0005
300 K, w2 = 0.513 | 1.4224 ± 0.0005
300 K, w2 = 0.901 | 1.4196 ± 0.0005
301.08 K, w2 = 0.194 | 1.4285 ± 0.0004
301.1 K, w2 = 0.602 | 1.4211 ± 0.0004
301.22 K, w2 = 0.384 | 1.424 ± 0.0005
301.4 K, w2 = 0.299 | 1.4258 ± 0.0005
301.52 K, w2 = 0.0947 | 1.4317 ± 0.0005
302.02 K, w2 = 0.513 | 1.4218 ± 0.0005
302.17 K, w2 = 0.194 | 1.4282 ± 0.0006
303.06 K, w2 = 0.0947 | 1.4313 ± 0.0004
303.53 K, w2 = 0.384 | 1.4234 ± 0.0005
303.55 K, w2 = 0.299 | 1.4252 ± 0.0005
304.01 K, w2 = 0.513 | 1.4212 ± 0.0005
304.13 K, w2 = 0.194 | 1.4276 ± 0.0005
304.93 K, w2 = 0.513 | 1.4209 ± 0.0005
305.12 K, w2 = 0.0947 | 1.4308 ± 0.0004
305.28 K, w2 = 0.384 | 1.4229 ± 0.0005
305.3 K, w2 = 0.299 | 1.4247 ± 0.0005
305.51 K, w2 = 0.194 | 1.4272 ± 0.0005
307.32 K, w2 = 0.194 | 1.4267 ± 0.0005
307.43 K, w2 = 0.299 | 1.4241 ± 0.0005
307.44 K, w2 = 0.384 | 1.4223 ± 0.0005
308.96 K, w2 = 0.384 | 1.4219 ± 0.0005
309.08 K, w2 = 0.299 | 1.4236 ± 0.0005
